Measured values from article PMC9535023, “Inhibition of phospholipase D1 induces immunogenic cell death and potentiates cancer immunotherapy in colorectal cancer” (Experimental & Molecular Medicine, 2022).

Assays:
FHC cells [1] = test: Apoptosis assay (annexin V flow cytometry), FHC; type: cell-based
Method: (§1) For cell cycle analysis, the cells were treated with Α3373 or 5-FU. The cells were labeled with 10 μΜ bromodeoxyuridine (BrdU) for 2 h. Subsequently, the cells were stained with 7-aminoactinomycin D (7-AAD, Invitrogen) and a fluorescein isothiocyanate (FITC)-conjugated anti-BrdU antibody (Invitrogen). Apoptotic cells were detected using an Annexin V-FITC Apoptosis Detection Kit (BD Biosciences). The cells were analyzed using BD FACSAria III (BD Biosciences), and data analysis was performed using FlowJo v10.0 (BD Biosciences).

DLD1 cells [2] = test: Apoptosis assay (annexin V flow cytometry), DLD1; type: cell-based
Method: as §1

FHC cells [3] = test: Cell cycle analysis (BrdU/7-AAD flow cytometry), FHC; type: cell-based; conditions: FHC normal fetal colonic mucosa cells
Method: as §1

DLD1 cells [4] = test: Cell cycle analysis (BrdU/7-AAD flow cytometry), DLD1; type: cell-based
Method: as §1

PLD [5] = test: PLD activity assay in HCT 116 cells; type: cell-based; conditions: at 10 μM (Fig. 1c)
Method: (§2) Cells were labeled with [H^3] myristic acid, and PLD activity was assessed by measuring the formation of [H^3] phosphatidylbutanol, which is the product of PLD-mediated transphosphatidylation, in the presence of 1-butanol, as previously described.

PLD [6] = test: PLD activity assay in DLD1 cells; type: cell-based; conditions: compared to unsubstituted congener
Method: as §2

PLD1 = biological target: T1, PLD1 (Homo sapiens, UniProt Q13393); test: Streptavidin pull-down assay, PLD1; type: binding; conditions: 10 μM, various CRC cell lysates
T1 construct: endogenous in cells
T1 sequence (Q13393 1-1074): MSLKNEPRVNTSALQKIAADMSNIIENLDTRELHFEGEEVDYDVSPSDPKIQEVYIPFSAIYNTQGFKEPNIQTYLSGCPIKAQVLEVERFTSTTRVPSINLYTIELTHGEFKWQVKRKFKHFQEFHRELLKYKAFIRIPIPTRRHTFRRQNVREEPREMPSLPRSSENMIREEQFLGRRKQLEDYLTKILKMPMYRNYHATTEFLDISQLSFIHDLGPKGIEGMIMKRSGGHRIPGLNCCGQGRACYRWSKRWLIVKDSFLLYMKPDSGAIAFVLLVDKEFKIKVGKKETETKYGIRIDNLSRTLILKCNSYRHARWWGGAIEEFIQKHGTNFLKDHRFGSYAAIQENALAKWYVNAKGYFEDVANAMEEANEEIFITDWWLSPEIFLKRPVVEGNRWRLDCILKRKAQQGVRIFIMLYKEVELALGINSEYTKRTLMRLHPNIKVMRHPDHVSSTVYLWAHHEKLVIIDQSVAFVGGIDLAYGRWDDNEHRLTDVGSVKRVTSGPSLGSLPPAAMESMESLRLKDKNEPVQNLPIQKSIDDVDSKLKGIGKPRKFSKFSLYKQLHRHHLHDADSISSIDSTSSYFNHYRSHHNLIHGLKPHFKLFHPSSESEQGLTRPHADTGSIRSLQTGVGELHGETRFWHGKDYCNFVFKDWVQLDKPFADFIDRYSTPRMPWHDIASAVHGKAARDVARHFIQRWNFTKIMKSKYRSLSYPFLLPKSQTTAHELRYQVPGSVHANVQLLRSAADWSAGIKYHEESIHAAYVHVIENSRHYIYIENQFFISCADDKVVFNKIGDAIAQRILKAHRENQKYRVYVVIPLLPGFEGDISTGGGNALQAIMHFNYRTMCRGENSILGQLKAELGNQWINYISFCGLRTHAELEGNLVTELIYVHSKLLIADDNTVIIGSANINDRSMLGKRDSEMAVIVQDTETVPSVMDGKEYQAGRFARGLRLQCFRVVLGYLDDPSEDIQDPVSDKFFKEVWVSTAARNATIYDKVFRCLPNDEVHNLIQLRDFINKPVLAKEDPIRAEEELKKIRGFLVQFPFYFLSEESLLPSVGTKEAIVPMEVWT
Method: Cells were lysed in passive lysis buffer (Promega). Cell lysates were incubated with biotinylated chemicals (A4333, 10 μM) or biotin (10 μM) at 37 °C for 1 h and treated with streptavidin beads (Thermo Scientific) at 20 °C for 1 h. After removing free biotinylated chemicals by washing with PBS, the samples were subjected to SDS‒PAGE followed by immunoblotting with an antibody against PLD[20].

O=c1[nH]cc(F)c(=O)[nH]1 [Compound 5-FU, 5-fluorouracil, reference compound]
apoptosis of FHC cells, in words (FHC cells [1]): increased the apoptosis of both CRC and FHC cells
apoptosis of CRC cells, in words (DLD1 cells [2]): increased the apoptosis of both CRC and FHC cells
cell cycle / S phase in FHC cells, in words (FHC cells [3]): decreased the S phase population
cell cycle / proliferation of CRC cells, in words (DLD1 cells [4]): decreased the S phase population

C[C@@H](CN1CCC(n2c(=O)[nH]c3cc(Cl)ccc32)CC1)NC(=O)c1ccc2ccccc2c1 [VU0155069, reference compound]
PLD activity remained (PLD [5]): 30.4%

O=C(CCCC[C@@H]1SC[C@@H]2NC(=O)N[C@@H]21)NNC(=O)c1ccc2[nH]c(C(=O)Nc3cc(C(F)(F)F)cc(C(F)(F)F)c3)cc2c1 [Compound A4333]
PLD inhibition, in words (PLD [6]): still potent for PLD inhibition
interaction with PLD1 (pull-down) (PLD1): interacted with PLD1
